Laboratory results from publication PMC6695355, “Alanine Scanning Studies of the Antimicrobial Peptide Aurein 1.2” (Probiotics and Antimicrobial Proteins, 2018).
Values after ≈ are worked out from the molar mass of the structure shown. Read-outs that look alike come from different tables or passages of the source. Where a SMILES comes first, the peptide text is derived from it.

Tests used:
[1] = test system: S. aureus ATCC 25923 biofilm formation; type: cell-based, Staphylococcus aureus; conditions: ATCC 25923, 24 h
Experimental: (§1) The minimum inhibitory concentrations (MICs) of test compounds were assessed by broth microdilution method on 96-well plates, according to the guidelines of Clinical and Laboratory Standards Institute (CLSI). For this purpose, reference strains of bacteria: S. aureus ATCC 25923, E. faecalis PCM 2673, E. coli ATCC 25922, and P. aeruginosa ATCC 9027; and fungus: C. albicans ATCC 10231 were used (The Polish Collection of Microorganism, Polish Academy of Sciences, Wrocław, Poland). Bacteria at initial inoculums of 0.5 × 10^5 CFU/mL in Mueller Hinton Broth (MHB), and fungi at initial inoculums of 2 × 10^3 CFU/mL in RPMI-1640, were exposed to the compounds over the concentration range of 1–512 μg/mL. The polystyrene plates were incubated at 37 °C for 18 h with bacteria and for 24 h with C. albicans. The MIC was taken as the lowest concentration at which a noticeable growth of microorganisms was inhibited. Minimum biofilm eradication concentrations (MBECs) were determined using a previously described protocol. For this purpose, 96-well polystyrene flat-bottom plates and a resazurin (7-hydroxy-3H-phenoxazin-3-one 10-oxide) were used. In this assay, a specific feature of resazurin is utilized, which upon the contact with living cells is metabolized and reduced from the basic blue form to pink resorufin. Briefly, 24-h cultures of microorganisms were diluted 1,000-fold and 100 μL of that suspension was added into the test plates. After 24 h of incubation at 37 °C, the wells of the plates were rinsed three times with phosphate buffer saline (PBS) to remove non-adherent cells. Subsequently, 100 μL of test compounds in concentration range (diluted in appropriate media) were added to each well. After 24 h of incubation at 37 °C, 20 μL of the resazurin (4 mg/mL) was added. The MBEC was read after 1 h. Additionally, anti-adhesive properties of the compounds were also analyzed. The assay was conducted on 96-well polystyrene flat-bottom plates. The preparation of inoculums was followed by a 500-fold dilution of 24-h cultures of microorganisms. Briefly, to evaluate the effect of the peptides in preventing biofilm formation, 50 μL of compounds in concentration range, diluted in appropriate medium, were prepared. Subsequently, the 50 μL of the bacterial/fungal inoculums were added to reach the same microbial density as that in MBEC assay. After 24 h of incubation at 37 °C, the wells were rinsed three times with PBS and the fresh media with resazurin (0.6 mg/mL) were added. Then, after 1 h of incubation, the minimum biofilm inhibitory concentrations (MBIC) were read. MBECs as well as MBICs were determined as the lowest concentration at which the reduction of resazurin was lower or equal (10% ± 0.5%) as compared to positive (100%) and negative (0%) controls. All experiments were performed in triplicate.

[2] = test system: S. aureus ATCC 25923 biofilm; type: cell-based, Staphylococcus aureus; conditions: ATCC 25923, 24 h
Experimental: as §1

S. aureus ATCC 25923 = type: cell-based, Staphylococcus aureus; conditions: ATCC 25923, 18 h
Experimental: as §1

[3] = test system: E. faecalis PCM 2673 biofilm formation; type: cell-based, Enterococcus faecalis; conditions: 24 h
Experimental: as §1

[4] = test system: E. faecalis PCM 2673 biofilm; type: cell-based, Enterococcus faecalis; conditions: 24 h
Experimental: as §1

E. faecalis PCM 2673 = type: cell-based, Enterococcus faecalis; conditions: PCM 2673, 18 h
Experimental: as §1

[5] = test system: E. coli ATCC 25922 biofilm formation; type: cell-based, Escherichia coli; conditions: ATCC 25922, 24 h
Experimental: as §1

[6] = test system: E. coli ATCC 25922 biofilm; type: cell-based, Escherichia coli; conditions: ATCC 25922, 24 h
Experimental: as §1

E. coli ATCC 25922 = type: cell-based, Escherichia coli; conditions: ATCC 25922, 18 h
Experimental: as §1

[7] = test system: P. aeruginosa ATCC 9027 biofilm formation; type: cell-based, Pseudomonas aeruginosa; conditions: ATCC 9027, 24 h
Experimental: as §1

[8] = test system: P. aeruginosa ATCC 9027 biofilm; type: cell-based, Pseudomonas aeruginosa; conditions: ATCC 9027, 24 h
Experimental: as §1

P. aeruginosa ATCC 9027 = type: cell-based, Pseudomonas aeruginosa; conditions: ATCC 9027, 18 h
Experimental: as §1

[9] = test system: C. albicans ATCC 10231 biofilm formation; type: cell-based, Candida albicans; conditions: ATCC 10231, 24 h
Experimental: as §1

[10] = test system: C. albicans ATCC 10231 biofilm; type: cell-based, Candida albicans; conditions: ATCC 10231, 24 h
Experimental: as §1

C. albicans ATCC 10231 = type: cell-based, Candida albicans; conditions: ATCC 10231, 24 h
Experimental: as §1

[11] = test system: human red blood cells (RBCs); assay: Hemolysis assay; type: cell-based
Experimental: The hemolytic activity of the peptides was determined using fresh human red blood cells (RBCs) collected from a healthy human donor according to the procedure described in the literature. Fresh RBCs with EDTA as anticoagulant were rinsed three times with a PBS by centrifugation at 800×g for 10 min and resuspension in PBS. Serial dilution of the peptides in PBS (1–256 μg/mL) on 96-well polystyrene plates was prepared and the stock solution of RBCs was added up to a final volume of 100 μL with a 4% concentration of erythrocytes (v/v). The control wells for 0 and 100% hemolysis contained of RBCs suspended in PBS and 1% of Triton-X 100, respectively. Subsequently, the plates were incubated for 1 h at 37 °C and then centrifuged at 800×g for 10 min at 4 °C (Sorvall ST 16R Centrifuge, Thermo Scientific). After centrifugation, the supernatant was carefully […] to new microtiter plates and the release of hemoglobin was measured at 540 nm (Multiskan™ GO Microplate Spectrophotometer, Thermo Scientific). All experiments were conducted in triplicate.

in vitro = in vitro ADME; conditions: bovine, serum
Experimental: To assess serum stability, the peptides (0.5 mg) were dissolved in 4 mL of 25% (v/v) fetal bovine serum (FBS) in PBS and incubated at 37 °C. The aliquots of 100 μL of the test samples were transferred to 96-well polystyrene plates in triplicate for each time point. Samples were quenched at zero time (t0) and after 6 h of incubation at 37 °C by addition of 100 μL of ice-cold acetonitrile and stored at 4 °C for 10 min. Afterwards, the samples were centrifuged at 13,000×g for 20 min at 4 °C and diluted 1:1 with HPLC-grade water. All samples were analyzed using the Waters Alliance e2695 system with Waters Acquity QDa Detector (software–Empower®3). Analyses were conducted on an Agilent Zorbax SB-C18 RP-18 column (4.6 × 50 mm, 1.8-μm particle size, 80-Å pore size) using a linear 30–60% acetonitrile (B) gradient in deionized water (A) over 6 min at 25.0 ± 0.1 °C, at a flow rate of 0.5 mL/min and MS working in selected ion recording (SIR) mode (A—0.1% aqueous formic acid (FA) and B—0.1% FA in acetonitrile). The percentage of peptide remaining intact was calculated from peak areas of samples at t0 and after 6 h of incubation in serum (the % of remaining peptide = peak area after 6 h/peak area at t0). The mass-to-charge ratios selected for SIR mode were based on values obtained from full spectrum analysis of each peptide and are presented in Table 1.

Row | MIC, S. aureus ATCC 25923 (S. aureus ATCC 25923) [µg/mL] | MIC, E. faecalis PCM 2673 (E. faecalis PCM 2673) [µg/mL] | MIC, E. coli ATCC 25922 (E. coli ATCC 25922) [µg/mL] | MIC, P. aeruginosa ATCC 9027 (P. aeruginosa ATCC 9027) [µg/mL] | MIC, C. albicans ATCC 10231 (C. albicans ATCC 10231) [µg/mL] | Compound | MBIC, S. aureus ATCC 25923 [1] [µg/mL] | MBEC, S. aureus ATCC 25923 [2] [µg/mL] | MBIC, E. faecalis PCM 2673 [3] [µg/mL] | MBEC, E. faecalis PCM 2673 [4] [µg/mL] | MBIC, E. coli ATCC 25922 [5] [µg/mL] | MBEC, E. coli ATCC 25922 [6] [µg/mL] | MBIC, P. aeruginosa ATCC 9027 [7] [µg/mL] | MBEC, P. aeruginosa ATCC 9027 [8] [µg/mL] | MBIC, C. albicans ATCC 10231 [9] [µg/mL] | MBEC, C. albicans ATCC 10231 [10] [µg/mL] | Percentage of hemolysis at 1 μg/mL ([11]; red cells of human, 1 h) [%] | Percentage of hemolysis at 4 μg/mL ([11]; red cells of human, 1 h) [%] | Percentage of hemolysis at 8 μg/mL ([11]; red cells of human, 1 h) [%] | Percentage of hemolysis at 16 μg/mL ([11]; red cells of human, 1 h) [%] | Percentage of hemolysis at 32 μg/mL ([11]; red cells of human, 1 h) [%] | further results
1 | 16 (≈ 11.1 µM) | 32 (≈ 22.3 µM) | 8 (≈ 5.57 µM) | 64 (≈ 44.6 µM) | 64 (≈ 44.6 µM) | CC[C@H](C)[C@H](NC(=O)[C@H](C)NC(=O)[C@H](Cc1ccccc1)NC(=O)[C@H](CC(C)C)NC(=O)CN)C(=O)N[C@H](C(=O)N[C@@H](CCCCN)C(=O)N[C@@H](CCCCN)C(=O)N[C@H](C(=O)N[C@@H](C)C(=O)N[C@@H](CCC(=O)O)C(=O)N[C@@H](CO)C(=O)N[C@@H](Cc1ccccc1)C(N)=O)[C@@H](C)CC)[C@@H](C)CC [Peptide D4A] (H-GLFAIIKKIAESF-NH2) | 16 | 16 | 32 | 128 | 8 | 32 | 64 | 512 | 2 | 512 | 0.2 | 0.3 | 0.3 | 0.3 | 1.5 | Percentage of hemolysis at 2 μg/mL ([11]; red cells of human, 1 h, 2): 0.3%; Percentage of hemolysis at 64 μg/mL ([11]; red cells of human, 1 h): 6.6%; Percentage of hemolysis at 128 μg/mL ([11]; red cells of human, 1 h): 23.2%; Percentage of hemolysis at 256 μg/mL ([11]; red cells of human, 1 h): 61.0%; remaining at 6 h, 0.125 mg/mL (in vitro): 44%
2 | 32 (≈ 22.5 µM) | 32 (≈ 22.5 µM) | 16 (≈ 11.3 µM) | 64 (≈ 45 µM) | 32 (≈ 22.5 µM) | CC[C@H](C)[C@H](NC(=O)[C@H](CCCCN)NC(=O)[C@H](CCCCN)NC(=O)[C@@H](NC(=O)[C@@H](NC(=O)[C@H](CC(=O)O)NC(=O)[C@H](Cc1ccccc1)NC(=O)[C@H](CC(C)C)NC(=O)CN)[C@@H](C)CC)[C@@H](C)CC)C(=O)N[C@@H](C)C(=O)N[C@@H](C)C(=O)N[C@@H](CO)C(=O)N[C@@H](Cc1ccccc1)C(N)=O [Peptide E11A] (H-GLFDIIKKIAASF-NH2) | 32 | 16 | 32 | > 512 | 16 | 64 | 64 | 512 | 4 | > 512 | 0.1 | 0.2 | 0.1 | 0.1 | 0.4 | Percentage of hemolysis at 2 μg/mL [11]: 17.4%; Percentage of hemolysis at 64 μg/mL ([11]; red cells of human, 1 h): 2.9%; Percentage of hemolysis at 128 μg/mL ([11]; red cells of human, 1 h): 11.9%; Percentage of hemolysis at 256 μg/mL ([11]; red cells of human, 1 h): 40.2%; remaining at 6 h, 0.125 mg/mL (in vitro): 17%
